The results in this text go back to PMC8244912, “An oxytocin/vasopressin-related neuropeptide modulates social foraging behavior in the clonal raider ant” (PLoS Biology, 2021).

Entries after “also recorded” stand apart in the source; their conditions may differ. Where a SMILES comes first, the peptide text is derived from it. Bridges are numbered along the chain shown (N, C = ends).

Experiment [1] relates to O. biroi inotocin receptor (itcR). Put plainly: Calcium flux, inotocin receptor co-transfected with G proteins or empty vector. Type of experiment: cell-based, Ooceraea biroi. As for the experimental part: Human embryonic kidney 293T (HEK293T) cells were cultured in DMEM supplemented with 10% FBS at 37°C in a tissue culture incubator with a humidified atmosphere containing 5% CO2. Cells were plated in 10-cm dishes, and, when they reached 60% to 70% confluency, they were transfected with a pcDNA3.3 vector containing approximately 1 ng of inotocin receptor cDNA or an empty vector as a control using Lipofectamine 2000. Cells were transfected directly into poly-D-lysine–coated 384-well plates and incubated for 48 hours at 37°C. Subsequently, cells were incubated with FLIPR Calcium 4 Assay kit dye for 1 hour in the incubator. The fluorescence (excitation, 488 nm; emission, 530 nm) of the wells was recorded using a Flex Station II 384 (Molecular Devices, San Jose, California, USA), and a dose curve of inotocin (0 to 3 μM) was applied to the wells, in sextuplicate (see below for inotocin peptide synthesis). We calculated the EC50 values using Prism (GraphPad Software version 8) nonlinear regression, 4-parameter logistic curve fit. Dose curves were repeated at least 3 times on independently prepared samples and different days. Results were consistent across replicates, and example dose curves are shown in Fig 1C and S4A Fig. Control experiments are shown in S2–S5 Figs.
(C and D) Co-transfection with Gq alpha 16. (E and F) Co-transfection with Gq alpha with Gi alpha C term chimera. […]
For orientation: A change in cytosolic calcium serves as a functional read-out for many receptors and channels.

Experiment [2] relates to O. biroi inotocin receptor ObiroiItr_A. The experiment is described as follows: Calcium imaging (fura-2), full-length receptor isoform A with G protein 16. The experiment is classed as cell-based, Ooceraea biroi. The settings on record: ObiroiItr_A and G protein 16; fura-2, 510 nm, ex 340/380 nm; peptide for 15 s. As for the experimental part:
(§1) Experiments were conducted following Garrison J.L., et al 2012 [8] with modifications. Human embryonic kidney 293T cells (HEK293T) were cultured in DMEM and supplemented with 10% FBS at 37 °C in a cell incubator containing 5% CO^2. Cells were grown in 35 mm MatTek glass bottom dishes to a level of 60 – 70% confluency. Cells were transfected with a 1:1 ratio of PCDNA3.3 containing ~ 1μg of itcR cDNA (full-length isoform A or truncated isoform H) (See S1 Fig for isoforms) and pcDNA3-alpha 16 (encoding promiscuous G protein 16) using Lipofectamine 2000. Cells were incubated for 24 h at 37 °C and then transferred to 28 °C for another 16-24 h. For control experiments, empty vector was also transfected. On the day of the experiment, the cells were loaded with […] fura-2/AM (Invitrogen) for 25 min at 37 °C. Inotocin peptide diluted in Ringer’s solution was applied to the cells for 15 s with a peristaltic pump, and fluorescence at 510 nm was monitored (excitation at 340/380 nm) using a MetaFluor calcium imaging system with a Nikon Eclipse TE2000U microscope.

The test system of experiment [3] is HEK293T cells transfected with an empty vector. The experiment is described as follows: Calcium imaging (fura-2), empty vector. The experiment is classed as cell-based, human. As for the experimental part: as §1
The subject of the next experiment is Ooceraea biroi ants. Put plainly: Pharmacological immersion, mixed-age colonies: ants outside the nest (S9 Fig). The experiment is classed as in vivo. The settings on record: immersion in 1 mM; mixed-age colonies with larvae; 5 hours; n = 6; p = 0.0002, extra sum-of-squares F-test. From the text:
Mature O. biroi inotocin peptide (CLITNCPRG) was synthesized and cyclized at The Rockefeller University Proteomics Resource Center, along with a scrambled version of the peptide (NRPCGLTCI) as a negative control with identical amino acid composition.
For the initial experiment (S9 Fig), we set up 6 experimental colonies of line B ants that were color tagged as previously described. Each colony consisted of 16 ants in an airtight Petri dish with a 5-cm diameter; 8 age-matched 4-week-old and 8 age-matched approximately 20-week-old ants. We added ten 3- to 4-day-old larvae to the colonies. We used Logitech (Lausanne, Switzerland) C910 USB cameras to record 5 hours after the treatments, and we used ImageJ to split the videos in batches of 5,000 frames (corresponding to 18.75-minute intervals). We sampled every 10th frame from the 5,000 frames and overlaid the resulting 500 frames into a single image using ImageJ. In each image, we manually counted the number of instances of ants that were outside the nest as a proxy for foraging behavior. Color tagging was used to differentiate inotocin treated from mock treated and untreated ants. The nest was defined as a region of high density of ants in the 500 image projections.
On the day of the experiment, colonies were not fed. To avoid disturbance to the colony as much as possible, half the colony was left untreated, and half was treated. […]

Experiment [4] deals with O. biroi inotocin receptor splice variant ObiroiItr_H (lacks TM4-7). Put plainly: Calcium imaging (fura-2), truncated receptor isoform H. Type of experiment: cell-based, Ooceraea biroi. How it is done: The full-length inotocin receptor cDNA sequence that was cloned and used for calcium assays is ObiroiItr_A (GenBank MW660838; for protein sequence, see S1 Fig). We also tested splice variant ObiroiItr_H (GenBank MW660845; for protein sequence, see S1 Fig), which lacks TM4-7, for calcium activity.
as §1

Consider `CC[C@H](C)[C@@H]1NC(=O)[C@H](CC(C)C)NC(=O)[C@@H](N)CSSC[C@@H](C(=O)N2CCC[C@H]2C(=O)N[C@@H](CCCNC(=N)N)C(=O)NCC(N)=O)NC(=O)[C@H](CC(N)=O)NC(=O)[C@H]([C@@H](C)O)NC1=O` [Inotocin] (H-CLITNCPRG-NH2; disulfide 1-6; N-terminus and C-terminus assumed), for which the “calcium response” value is reported as “does not require co-transfection with a G-protein” in experiment [1] (co-transfection with Gq alpha 16, Gq alpha with Gi alpha C term chimera, or Gq alpha with Go alpha C term chimera compared with empty vector) and “response in a dose dependent manner; also recorded: show calcium responses when stimulated with inotocin” in experiment [1] (itcR co-transfected with empty vector (no G protein), 28°C or constantly 37°C). Moreover, the “calcium signal” value was “Calcium signal is detected” in experiment [2], “No calcium signal is detected” in experiment [3] and “no response to inotocin; also recorded: No calcium signal is detected; also recorded: does not respond to inotocin” in experiment [4]. Moreover, the “time/instances outside the nest vs scrambled control peptide” value in the experiment on Ooceraea biroi ants is “spent more time outside the nest than controls; also recorded: foraged more when treated with inotocin than when treated with the control peptide”.
